Test system: 362531-283-R-J2-PDC complex spheroid viability
Experiment: Anticancer human tumor 362531-283-R-J2-PDC patient-derived colon adenocarcinoma cell line growth inhibition [RAS]
Settings: for IC50: curve of first compound; for viability, T/C: stronger effect = lower value
Procedure, shortened: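 Multi-cell-type spheroids: tumor cells plus HUVEC endothelial cells and mesenchymal stem cells. RAS-pathway inhibitors were combined with targeted agents, each dosed in half-log steps down from clinical Cmax, or from 10 microM when Cmax was unknown.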

[1] = second compound 0.00316 µM, first compound 0.0316 µM
[2] = second compound 0.00316 µM, first compound 0.1 µM
[3] = second compound 0.00316 µM, first compound 0.316 µM
[4] = second compound 0.00316 µM, first compound 1 µM
[5] = second compound 0.00316 µM, first compound 3.16 µM
[6] = second compound 0.00316 µM, first compound 10 µM
[7] = second compound 0.01 µM, first compound 0.0316 µM
[8] = second compound 0.01 µM, first compound 0.1 µM
[9] = second compound 0.01 µM, first compound 0.316 µM
[10] = second compound 0.01 µM, first compound 1 µM
[11] = second compound 0.01 µM, first compound 3.16 µM
[12] = second compound 0.01 µM, first compound 10 µM
[13] = second compound 0.0316 µM, first compound 0.0316 µM
[14] = second compound 0.0316 µM, first compound 0.1 µM
[15] = second compound 0.0316 µM, first compound 0.316 µM
[16] = second compound 0.0316 µM, first compound 1 µM
[17] = second compound 0.0316 µM, first compound 3.16 µM
[18] = second compound 0.0316 µM, first compound 10 µM
[19] = second compound 0.1 µM, first compound 0.0316 µM
[20] = second compound 0.1 µM, first compound 0.1 µM
[21] = second compound 0.1 µM, first compound 0.316 µM
[22] = second compound 0.1 µM, first compound 1 µM
[23] = second compound 0.1 µM, first compound 3.16 µM
[24] = second compound 0.1 µM, first compound 10 µM
[25] = second compound 0.316 µM, first compound 0.0316 µM
[26] = second compound 0.316 µM, first compound 0.1 µM
[27] = second compound 0.316 µM, first compound 0.316 µM
[28] = second compound 0.316 µM, first compound 1 µM
[29] = second compound 0.316 µM, first compound 3.16 µM
[30] = second compound 0.316 µM, first compound 10 µM
[31] = second compound 1 µM, first compound 0.0316 µM
[32] = second compound 1 µM, first compound 0.1 µM
[33] = second compound 1 µM, first compound 0.316 µM
[34] = second compound 1 µM, first compound 1 µM
[35] = second compound 1 µM, first compound 3.16 µM
[36] = second compound 1 µM, first compound 10 µM
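Also: spheroids exposed to the agents for 7 days before readout.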
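For viability, T/C in this document: luminescence viability as percent of DMSO vehicle control wells.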

With `CC(Nc1ccc2c(c1)OCCn1cc(N3C(=O)OCC3C(F)F)nc1-2)C(N)=O` (stereo unspecified) + C=CC(=O)N1CCN(c2nc(OCC3CCCN3C)nc3c(F)c(-c4nc(N)cc(C)c4C(F)(F)F)c(Cl)cc23)C(C)C1 the IC50 (second compound 0.00316 µM) was 549 nM, the IC50 (second compound 0.01 µM) was 928 nM and the IC50 (second compound 0.0316 µM) was 666 nM. It also gave an IC50 (second compound 0.1 µM) of 810 nM, an IC50 (second compound 0.316 µM) of 839 nM and an IC50 (second compound 1 µM) of 808 nM. It also gave a viability, T/C [1] of 96.6%, a viability, T/C [2] of 78.6% and a viability, T/C [3] of 54.5%. For the same compound, the viability, T/C [4] was 46.1%, the viability, T/C [5] was 39.1% and the viability, T/C [6] was 42.7%. It also gave a viability, T/C [7] of 97.4%, a viability, T/C [8] of 86.2% and a viability, T/C [9] of 70.2%. It also gave a viability, T/C [10] of 46.8%, a viability, T/C [11] of 38.3% and a viability, T/C [12] of 30.3%. It also gave a viability, T/C [13] of 87.4%, a viability, T/C [14] of 84.4% and a viability, T/C [15] of 63.7%. The viability, T/C [16] was 43.5%, the viability, T/C [17] was 33.3% and the viability, T/C [18] was 43.4%. For the same compound, the viability, T/C [19] was 95.9%, the viability, T/C [20] was 92.5% and the viability, T/C [21] was 71.7%. It also gave a viability, T/C [22] of 44.2%, a viability, T/C [23] of 35.4% and a viability, T/C [24] of 27.4%. For the same compound, the viability, T/C [25] was 107%, the viability, T/C [26] was 88% and the viability, T/C [27] was 68.8%. It also gave a viability, T/C [28] of 47.9%, a viability, T/C [29] of 31.9% and a viability, T/C [30] of 35.8%. It also gave a viability, T/C [31] of 94.8%, a viability, T/C [32] of 95.6% and a viability, T/C [33] of 72%. The viability, T/C [34] was 46.6%, the viability, T/C [35] was 31.8% and the viability, T/C [36] was 35%.

`CC1(C)CCC(Nc2ncc(C(F)(F)F)c(-c3c[nH]c4c(P(C)(C)=O)c(C#N)ccc34)n2)CN1` (stereo unspecified) + CCn1c(-c2cc(N3CCN(C)CC3)cnc2C(C)OC)c2c3cc(ccc31)-c1csc(n1)CC(NC(=O)C1CC1C)C(=O)N1CCCC(N1)C(=O)OCC(C)(C)C2 was tested, and the IC50 (second compound 0.000949 µM) was over 300 nM, the IC50 (second compound 0.003 µM) was over 300 nM and the IC50 (second compound 0.00949 µM) was over 300 nM. It also gave an IC50 (second compound 0.03 µM) of over 300 nM, an IC50 (second compound 0.0949 µM) of over 300 nM and an IC50 (second compound 0.3 µM) of under 0.949 nM. The viability, T/C (second compound 0.000949 µM, first compound 0.000949 µM) was 104%, the viability, T/C (second compound 0.000949 µM, first compound 0.003 µM) was 97.3% and the viability, T/C (second compound 0.000949 µM, first compound 0.00949 µM) was 100%. The viability, T/C (second compound 0.000949 µM, first compound 0.03 µM) was 99.7%, the viability, T/C (second compound 0.000949 µM, first compound 0.0949 µM) was 93% and the viability, T/C (second compound 0.000949 µM, first compound 0.3 µM) was 95.1%. It also gave a viability, T/C (second compound 0.003 µM, first compound 0.000949 µM) of 104%, a viability, T/C (second compound 0.003 µM, first compound 0.003 µM) of 102% and a viability, T/C (second compound 0.003 µM, first compound 0.00949 µM) of 104%. It also gave a viability, T/C (second compound 0.003 µM, first compound 0.03 µM) of 97.1%, a viability, T/C (second compound 0.003 µM, first compound 0.0949 µM) of 101% and a viability, T/C (second compound 0.003 µM, first compound 0.3 µM) of 95.3%. The viability, T/C (second compound 0.00949 µM, first compound 0.000949 µM) was 103%, the viability, T/C (second compound 0.00949 µM, first compound 0.003 µM) was 110% and the viability, T/C (second compound 0.00949 µM, first compound 0.00949 µM) was 101%. The viability, T/C (second compound 0.00949 µM, first compound 0.03 µM) was 100%, the viability, T/C (second compound 0.00949 µM, first compound 0.0949 µM) was 105% and the viability, T/C (second compound 0.00949 µM, first compound 0.3 µM) was 104%. For the same compound, the viability, T/C (second compound 0.03 µM, first compound 0.000949 µM) was 101%, the viability, T/C (second compound 0.03 µM, first compound 0.003 µM) was 107% and the viability, T/C (second compound 0.03 µM, first compound 0.00949 µM) was 93.7%. For the same compound, the viability, T/C (second compound 0.03 µM, first compound 0.03 µM) was 92.9%, the viability, T/C (second compound 0.03 µM, first compound 0.0949 µM) was 98.6% and the viability, T/C (second compound 0.03 µM, first compound 0.3 µM) was 98.5%. It also gave a viability, T/C (second compound 0.0949 µM, first compound 0.000949 µM) of 85%, a viability, T/C (second compound 0.0949 µM, first compound 0.003 µM) of 82% and a viability, T/C (second compound 0.0949 µM, first compound 0.00949 µM) of 75.9%. The viability, T/C (second compound 0.0949 µM, first compound 0.03 µM) was 82.2%, the viability, T/C (second compound 0.0949 µM, first compound 0.0949 µM) was 82.2% and the viability, T/C (second compound 0.0949 µM, first compound 0.3 µM) was 102%. It also gave a viability, T/C (second compound 0.3 µM, first compound 0.000949 µM) of 40.9%, a viability, T/C (second compound 0.3 µM, first compound 0.003 µM) of 52% and a viability, T/C (second compound 0.3 µM, first compound 0.00949 µM) of 60.3%. It also gave a viability, T/C (second compound 0.3 µM, first compound 0.03 µM) of 58.7%, a viability, T/C (second compound 0.3 µM, first compound 0.0949 µM) of 68.5% and a viability, T/C (second compound 0.3 µM, first compound 0.3 µM) of 76.8%.

With `CC(C)NCC(C(=O)N1CCN(c2ncnc3c2C(C)CC3O)CC1)c1ccc(Cl)cc1` (stereo unspecified) + C=CC(=O)N1CCN(c2nc(OCC3CCCN3C)nc3c(F)c(-c4nc(N)cc(C)c4C(F)(F)F)c(Cl)cc23)C(C)C1 the IC50 (second compound 0.00316 µM) was over 10000 nM, the IC50 (second compound 0.01 µM) was over 10000 nM and the IC50 (second compound 0.0316 µM) was over 10000 nM. The IC50 (second compound 0.1 µM) was over 10000 nM, the IC50 (second compound 0.316 µM) was over 10000 nM and the IC50 (second compound 1 µM) was over 10000 nM. The viability, T/C [1] was 109%, the viability, T/C [2] was 98.7% and the viability, T/C [3] was 103%. It also gave a viability, T/C [4] of 91.2%, a viability, T/C [5] of 97% and a viability, T/C [6] of 92.5%. It also gave a viability, T/C [7] of 93.7%, a viability, T/C [8] of 101% and a viability, T/C [9] of 90.7%. The viability, T/C [10] was 94.6%, the viability, T/C [11] was 106% and the viability, T/C [12] was 107%. The viability, T/C [13] was 90.5%, the viability, T/C [14] was 104% and the viability, T/C [15] was 101%. It also gave a viability, T/C [16] of 102%, a viability, T/C [17] of 103% and a viability, T/C [18] of 94.9%. For the same compound, the viability, T/C [19] was 94.2%, the viability, T/C [20] was 94.5% and the viability, T/C [21] was 105%. The viability, T/C [22] was 96.8%, the viability, T/C [23] was 111% and the viability, T/C [24] was 102%. The viability, T/C [25] was 95.4%, the viability, T/C [26] was 105% and the viability, T/C [27] was 101%. It also gave a viability, T/C [28] of 96.8%, a viability, T/C [29] of 111% and a viability, T/C [30] of 92.5%. For the same compound, the viability, T/C [31] was 98.6%, the viability, T/C [32] was 101% and the viability, T/C [33] was 95.7%. It also gave a viability, T/C [34] of 102%, a viability, T/C [35] of 104% and a viability, T/C [36] of 86.8%.

Source: PubChem BioAssay AID2060909 (Molecular Pharmacology Branch, DTP, NCI, 2025)
